Test results reported in PMC10813753 (Biology, 2024).

Tests used:
[1] = tested on: Calf thymus CT DNA; assay: CT DNA viscosity titration; assay type: binding; conditions: 25 °C, 10 mM sodium phosphate buffer pH 7.2, mean slope
Procedure: The DNA viscosity titration was conducted as previously reported. For that purpose, Calf thymus CT DNA was used. DNA and compound 1 solutions were freshly prepared in 10 mM NaH2PO4/Na2HPO4 buffer, pH = 7.2. CT DNA solutions (~0.35 mM, nt) were equilibrated for 20 min at 25 °C in a thermostated bath, and 20 flow times were then recorded. Several aliquots (ca. 25–60 μL each) of a solution of ligand 1 (~1.8 mM) were sequentially added. After a 20 min equilibration at 25 °C, flow times were registered. Finally, viscosities (μ) were calculated at each titration point, from the averaged flow times recorded and the viscometer constant. The viscosity graphs were obtained by plotting (μ/μ0)^1/3 versus r, the molar ratio of bound ligand to DNA. The parameter μ0 represents the DNA solution viscosity in the absence of a compound.
Viscosity titration assays are known to provide useful information, mainly in reversible dsDNA-ligand non-covalent binding modes, and, especially, they are normally used to differentiate between classical DNA intercalants from groove or external binders. The theory of Cohen and Eisenberg establishes that the existence (or not) of changes in the viscosity of a DNA solution upon binding to small-molecule ligands could be correlated to the ligand binding mode. […]

[2] = tested on: telomeric G4 sequence F21T; assay: FRET-based DNA melting assay, telomeric G4 F21T; assay type: binding, human; conditions: 0.2 μM F21T, renaturing process, K+ buffer
Procedure: FRET DNA melting assays were conducted following standard reported procedures. Briefly, the employed oligonucleotides F21T (5′-FAM—(GGG TTA)3GGG—TAMRA-3′) and F10T (5′-FAM—TAT AGC TA TA/Sp18/TA GCT ATA—TAMRA-3′) were dissolved in buffer at 0.25 μM concentration and annealed by heating at 90 °C for 5 min, and then immediately cooling to 0 °C, in the case of F21T, or slowly to rt (F10T) during a period of 3 hours. The solutions were allowed to stand at 4 °C at least overnight.
Tested compounds 1–4 were dissolved in water with up to a maximum 10% DMSO (50 μM stock solution). Each stock solution was then gradually diluted to reach the final concentrations in the assay from 0 to 10 μM and a fixed 0.2 μM concentration of target sequences F21T or F10T. The buffer used for G4 sequence F21T was 10 mM KCl, 90 mM LiCl and 10 mM Li-cacodylate, pH 7.3. The buffer employed for F10T was 100 mM LiCl and 10 mM Li-cacodylate.
The melting process program consisted of an incubation step at 24 °C for 5 min and then a temperature ramp (1 °C/min rate) with fluorescence recordings at every degree up to 95 °C. Subsequently, the microplate with the samples (50 μL) was incubated for 5 min at 96 °C and then gradually cooled by using a temperature ramp of −1 °C/min, with fluorescence measurements at every degree down to 25 °C. The melting and refolding (or renaturing) curves were registered based on the change in emission of the FAM (6-carboxyfluorescein) fluorophore, excited at 492 nm and emitting at 516 nm. Melting temperature values (Tm) were determined from replicate experiments using normalized curves and considering mid-transition T1/2 temperatures.

[3] = tested on: HeLa cells; assay: Cell cycle analysis by flow cytometry, HeLa; assay type: cell-based, human; conditions: ½ IC50 concentration, 72 h
Procedure: For cell cycle experiments, exponentially growing HeLa cells in DMEM were seeded in 6-well plates at a density of 2.5 × 10^5/well. […] Untreated cells were used as controls. After washing with PBS, cells were detached with 0.25% trypsin/0.2% EDTA and centrifuged at 1500 rpm for 5 min at rt. The resulting pellets were mixed with cold 70% ethanol (0.5 mL) and kept at 4 °C for 30 min. Ethanol was removed by centrifugation, and the pellets were washed with 2 mL PBS + 2% BSA and centrifuged. After discarding the supernatants, a propidium iodide solution (PI/RNAse, FxCycle^TM, Invitrogen^TM ref. F10797, 0.5 mL, Thermo Fisher, Madrid, Spain) was added, mixed thoroughly and incubated for 15 min at room temperature prior to analysis by flow cytometry. A total of 10,000 events were registered for each sample. The obtained results were analyzed with the MacsQuantify 2.13.1 program (Miltenyi Biotech, Pozuelo de Alarcón, Spain) and represented as histograms.

Substance: 2,2′-(1,10-Phenanthroline-2,9-diyl)-bis(methylene)-bis(hydrazine-1-carbothioamide) [compound 1]
- viscosity slope, (η/ηo)^1/3 versus r [1]: ca. 0.13
- ΔTm of telomeric G4 F21T ([2]; 5 μM compound): ~ 7 °C
- ΔTm of telomeric G4 F21T ([2]; 10 μM compound): ~ 12 °C
- change in SubG0 population [3]: notably increased the number of cells in SubG0
